From PubChem BioAssay AID467 (The Scripps Research Institute Molecular Screening Center, 2006)
Calls of active or inactive are those of the source. The rule behind the calls is not given here.

Test system: parental cell line counter screen, S1P1 agonist assay readout
Test: signal in parental cells, counter-screen for S1P1 agonist project (AID 467);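 note: agonist potency measured against forskolin stimulation plus an EC20 level of SEW2871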

Row | Structure (SMILES) | EC50
1 | COc1ccc(/C=N/O)cc1COc1ccc(NC(C)=O)cc1 | > 95.1 µM (inactive)
2 | CNc1oc(-c2ccc(OCc3ccccc3)cc2)nc1C#N | > 95.1 µM (inactive)
3 | O=C(OC1CCCCC1)c1ccc(NC(=O)c2ccco2)cc1 | > 30 µM (inactive)
4 | O=S1(=O)C=C(Sc2nc3ccccc3s2)c2ccccc21 | 1.26 µM
5 | CC(=O)Nc1ccc(S(=O)(=O)N2CCN(c3cccc(C)c3C)CC2)cc1 | 36.5 µM (inactive)
6 | CCC(C)c1ccc2oc(-c3ccc(NC(=O)c4ncn[nH]4)cc3)nc2c1 (configuration not stated) | > 95.1 µM (inactive)
7 | CCc1ccc(-c2nc(CSCC(=O)N3CCN(c4ccccn4)CC3)c(C)o2)cc1 | 18.7 µM (inactive)
8 | Fc1ccc(COc2ccc(/C=N/n3cnnc3)cc2)cc1 | > 95.1 µM (inactive)
9 | O=C(Nc1nc(-c2ccc3c(c2)OCO3)cs1)c1ccncc1 | 28.9 µM (inactive)
10 | CCOC(=O)c1ccc2c(c1)C(=O)N(C1CCCCC1)C2=O | > 95.1 µM (inactive)
11 | COc1ccccc1-c1nc(-c2cccc(C)c2)no1 | > 95.1 µM (inactive)
12 | Cc1nc(C)c(C(=O)Nc2ccc(Oc3ccccc3)cc2)o1 | > 30 µM (inactive)
13 | COc1ccc2[nH]c(=O)c3c(c2c1)OC(C)(C)C=C3 | 6.75 µM
14 | C=CCOC(=O)c1[nH]c2c(c1C)C(=O)CC(c1cc(OC)c(OC)c(OC)c1)C2 (configuration not stated) | > 95.1 µM (inactive)
15 | CCCOC(=O)c1[nH]c2c(c1C)C(=O)CC(c1cc(OC)c(OC)c(OC)c1)C2 (configuration not stated) | 35.5 µM (inactive)
16 | CC(C)Cn1c(=O)c(C(=O)Nc2ccccc2S(N)(=O)=O)c(O)c2ccccc21 | 16.3 µM (inactive)
17 | CN1CCN(C(=O)CSc2nc(-c3cccs3)cc(-c3cccs3)c2C#N)CC1 | 19.7 µM (inactive)
18 | COc1ccc(CCNc2c(C)c(C)nc3ncnn23)cc1 | 43.4 µM (inactive)
19 | Cc1n[nH]c(C)c1N1C(=O)c2cccc3c(N4CCCCCC4)ccc(c23)C1=O | 37 µM (inactive)
20 | O=C(Nc1ccc(N2CCCC2)c(Cl)c1)c1ccc(Br)o1 | > 95.1 µM (inactive)
21 | CCn1nc(-c2cccs2)nc2c(=O)n(C)c(=O)nc1-2 | 12.3 µM (inactive)
22 | CC(=O)c1c(C)[nH]c(C(=O)OCCCCN2C(=O)c3ccccc3C2=O)c1C | > 10 µM (inactive)
23 | C=CCn1c(C)cc(C(=O)CSc2nc3ccccc3o2)c1C | > 30 µM (inactive)
24 | CCOc1cc(-c2noc(-c3cccnc3)n2)ccc1OC | > 95.1 µM (inactive)
25 | O=C(c1ccc(Cl)s1)N1CCN(c2nc3ccccc3s2)CC1 | > 95.1 µM (inactive)
26 | Cc1cc(-c2nnc(-c3ccccc3)c(-c3ccccc3)n2)c(C)o1 | 33.7 µM (inactive)

Row | Structure (SMILES) | EC50
27 | CCOC(=O)c1sc2nc(NC(=O)C3CCCCC3)sc2c1C | > 95.1 µM (inactive)
28 | Cc1nc(NC(C)c2ccccc2)c2oc3ccccc3c2n1 (configuration not stated) | 52.9 µM (inactive)
29 | Cc1noc(C)c1S(=O)(=O)N(CC(=O)Nc1ccc2c(c1)OCCO2)c1ccc(C(C)C)cc1 | > 95.1 µM (inactive)
30 | O=S(=O)(CCSc1ccccn1)c1nc2ccccc2s1 | 4.71 µM
31 | COc1ccc(Cc2nc(-c3ccc(-n4cccc4)cc3)no2)cc1OC | > 95.1 µM (inactive)
32 | Cc1ccc(-c2n[nH]c(=S)n2C)cc1 | > 95.1 µM (inactive)
33 | CCc1cc2c(N3CCN(c4ccccc4)CC3)ncnc2s1 | 16.3 µM (inactive)
34 | Cc1cccc(NC(=O)Nc2ccc(C#N)cc2)n1 | 43 µM (inactive)
35 | Nc1c(C(=O)NC2CCCC2)sc2nc(-c3cccs3)ccc12 | 23.1 µM (inactive)
36 | Cc1cc(C(=O)CSc2nnnn2C)c(C)n1-c1cccc(F)c1 | > 95.1 µM (inactive)
37 | Cc1cc(C)n(-c2nc3ccccc3c(=O)n2OCCOc2ccccc2)n1 | > 95.1 µM (inactive)
38 | CCSc1nnc(NC(=O)C(Cc2ccccc2)n2cccc2)s1 (configuration not stated) | > 95.1 µM (inactive)
39 | COc1ccc(S(=O)(=O)N2CCN(c3ccc(C)cc3C)CC2)cc1OC | 28.4 µM (inactive)
40 | CC(C)c1cc(C(F)(F)F)n2nc(C(=O)Nc3ccc4c(c3)OCO4)cc2n1 | > 95.1 µM (inactive)
41 | CCOC(=O)CN1C(=O)C(C)(C)Oc2ccc(C(=O)Nc3ccccc3OC)cc21 | > 95.1 µM (inactive)
42 | CCN=c1sc(C(=O)NCCc2ccccc2)cc(=O)n1CC | 53.2 µM (inactive)
43 | CCCc1ccc(Oc2cn[nH]c2-c2ccc(O)c(C)c2O)cc1 | > 10 µM (inactive)
44 | Cc1cccc(OCCCCc2c(C)n[nH]c2C)c1C | 29.3 µM (inactive)
45 | O=C(C1CCCN1S(=O)(=O)c1cccc2cccnc12)N1CCN(c2ccccc2)CC1 (configuration not stated) | > 95.1 µM (inactive)
46 | Cc1ccc2[nH]c3c(N4CCN(Cc5ccc6c(c5)OCO6)CC4)ncnc3c2c1 | > 95.1 µM (inactive)
47 | Cc1cc(C(=O)CSc2nc3ccccc3c(=O)n2C)c(C)n1Cc1ccc2c(c1)OCO2 | 54.9 µM (inactive)
48 | CCOC(=O)c1cnc(-n2nc(C)cc2C)nc1NC1CCCCC1 | 5.93 µM
49 | COc1ccc2c(c1)-c1nc(NC(=O)c3cccs3)sc1CC2 | 16.2 µM (inactive)
50 | CC(=O)N1C=CN(C(C)=O)C(c2cn(C)c3ccccc23)C1c1cn(C)c2ccccc12 (configuration not stated) | > 30 µM (inactive)
51 | O=C(Cc1c[nH]c2ccccc12)N1CCc2ccccc21 | > 95.1 µM (inactive)
52 | CCCN(C(=O)c1cccs1)c1nnc(-c2ccncc2)s1 | > 95.1 µM (inactive)

Row | Structure (SMILES) | EC50
53 | N/C(=N\c1nc2c(c(=O)[nH]1)CCCC2)Nc1ccccc1 | > 95.1 µM (inactive)
54 | Clc1ccccc1C1=Nn2c(nnc2-c2ccncc2)SC1 | 13.9 µM (inactive)
55 | CC(C)N1C(=O)CCC1C(=O)N1CCC(Cc2ccccc2)CC1 (configuration not stated) | > 95.1 µM (inactive)
56 | Nc1ccc(N2CCOCC2)c(Cl)c1 | > 95.1 µM (inactive)
57 | CCOc1ccc(-c2nc(-c3ccccc3)no2)cc1OCC | > 95.1 µM (inactive)
58 | O=C(Nc1nccs1)c1ccc(S(=O)(=O)NCC2CCCCC2)cc1 | > 30 µM (inactive)
59 | CCc1ccc(NC(=O)c2cc(-c3ccco3)on2)cc1 | > 95.1 µM (inactive)
60 | COc1ccccc1OCCCCCc1c(C)n[nH]c1C | 57.2 µM (inactive)
61 | CCOC(=O)c1ccc2nc(NC(=O)c3ccco3)sc2c1 | > 95.1 µM (inactive)
62 | COc1ccc(OCCCSc2ncccn2)cc1 | > 95.1 µM (inactive)
63 | CCCCn1nnnc1SCC(=O)c1ccc(C)c(C)c1 | > 95.1 µM (inactive)
64 | Cc1cc(N2CCN(C(c3ccccc3)c3ccccc3)CC2)n2ncnc2n1 | > 30 µM (inactive)
65 | CC(=O)Nc1ccc(S(=O)(=O)N2CCN(CCCOc3cc(C)ccc3C)CC2)cc1 | > 30 µM (inactive)
66 | Clc1ccc(OCc2nc(-c3ccncc3)no2)c(Br)c1 | > 30 µM (inactive)
67 | CCCCOc1ncnc2c1[nH]c1ccc(F)cc12 | > 95.1 µM (inactive)
68 | COc1ccccc1OCc1nc(C#N)c(N2CC(C)CC(C)C2)o1 (configuration not stated) | > 95.1 µM (inactive)
69 | COc1ccc(-c2nc(-c3ccc(Br)o3)no2)cc1OC | > 95.1 µM (inactive)
70 | O=S(=O)(NCc1ccncc1)c1ccc(Br)s1 | > 95.1 µM (inactive)
71 | CC(C)(C)OC(=O)N[C@@H](Cc1ccccc1)c1nnc(S(=O)(=O)Cc2cccc(F)c2)o1 | 2.63 µM
72 | CCOC(=O)c1sc2nc(NC(=O)C(C)(C)C)sc2c1C | > 10 µM (inactive)
73 | Cc1ccc(OCCn2cc(/C(N)=N/O)c3ccccc32)cc1C | 17 µM (inactive)
74 | c1ccc2c(c1)oc1c(NCc3ccc4c(c3)OCO4)ncnc12 | 38.9 µM (inactive)
75 | CCOc1ccc(-c2nc(-c3ccc(OC)cc3)no2)cc1OCC | > 95.1 µM (inactive)
76 | Cc1ccc(Cl)cc1N1CCN(C(=O)COc2ccc(S(=O)(=O)NC(C)C)cc2)CC1 | 30 µM (inactive)
77 | O=C(Nc1ccc(-c2noc(CCc3ccccc3)n2)cc1)c1cccnc1 | > 30 µM (inactive)
78 | COc1ccc(-c2noc(-c3cccc(OC)c3OC)n2)cc1OC | > 95.1 µM (inactive)

Row | Structure (SMILES) | EC50
79 | Cc1cc(/C=N/n2cnnc2)c(C)n1-c1ccc(OCc2ccccc2F)cc1 | 7.37 µM
80 | COC(=O)c1ccc(OCC(O)Cn2nnc3ccccc32)cc1 (configuration not stated) | > 95.1 µM (inactive)
81 | Cc1cc(C(=O)CSc2nnnn2-c2ccc(O)cc2)c(C)n1Cc1ccc2c(c1)OCO2 | 11.9 µM (inactive)
82 | O=C(Nc1ccc(Oc2ccccc2)cc1)c1cnc2n(c1=O)CCS2 | > 95.1 µM (inactive)
83 | CCN(C(=O)C1CCCCC1)c1nnc(-c2cccnc2)s1 | > 95.1 µM (inactive)
84 | Cn1c(C(=O)N2CCCc3ccccc32)cc2sccc21 | > 95.1 µM (inactive)
85 | Cc1csc(NC(=O)c2nc(-c3ccccc3)n(-c3ccccc3)n2)n1 | > 95.1 µM (inactive)
86 | Cc1ccccc1-c1nnc(SCc2ccccc2F)o1 | > 95.1 µM (inactive)
87 | COc1cc(CSc2nnnn2-c2ccc(C)cc2)cc(OC)c1OC | > 30 µM (inactive)
88 | Cc1cc(C(=O)COC(=O)c2csc3c2CCCC3)c(C)n1C | > 95.1 µM (inactive)
89 | CC(C)OC(=O)CSc1nc(N)c(C#N)c(-c2cccs2)c1C#N | > 95.1 µM (inactive)
90 | Cc1ccsc1C(=O)OCC(=O)c1cc(C)n(CC2CCCO2)c1C (configuration not stated) | > 95.1 µM (inactive)
91 | O=C(CSc1nnc(-c2c[nH]c3ccccc23)o1)N(Cc1ccccc1)c1ccc(F)cc1 | 16 µM (inactive)
92 | COCCn1c(C)cc(C(=O)CSc2nc3ccccc3o2)c1C | > 95.1 µM (inactive)
93 | CCOc1ccc(-c2nnc(-c3cccs3)o2)cc1OCC | > 95.1 µM (inactive)
94 | Cc1nn(Cc2ccccc2)c(C)c1C(=O)OCC(=O)c1cc(C)n(C2CC2)c1C | > 30 µM (inactive)
95 | COC(=O)C1=CN(CCCN2CCCC2=O)C=C(C(=O)OC)C1c1ccccc1C(F)(F)F | > 95.1 µM (inactive)
96 | CCCCOc1ccc(S(=O)(=O)n2c(C)nc3ccccc32)cc1 | > 95.1 µM (inactive)
97 | C=CCN1C(=Nc2cccnc2)SCC1(O)c1ccc(C)cc1 (configuration not stated) | 31.9 µM (inactive)
98 | Cc1nc2ccccc2c2oc(C(=O)NCC3COc4ccccc4O3)cc12 (configuration not stated) | 20.2 µM (inactive)
99 | CCCCCn1c(=O)c(C(=O)NCc2ccncc2)c(O)c2ccccc21 | 30.8 µM (inactive)
100 | CC(=O)c1ccc(N2CCN(c3ccc(C(F)(F)F)cn3)CC2)cc1 | > 95.1 µM (inactive)
101 | CCCCOC(=O)c1[nH]c2c(c1C)C(=O)CC(c1cc(OC)c(OC)c(OC)c1)C2 (configuration not stated) | 12.1 µM (inactive)
102 | Cc1cccc(OCCCCc2c(C)n[nH]c2C)c1 | > 30 µM (inactive)
